Measurements taken from patent US10682388B2, “Targeting of PELP1 in cancer therapy” (THE BOARD OF REGENTS OF THE UNIVERSITY OF TEXAS SYSTEM, priority 2014, dated 2020).
Entries after “also recorded” stand apart in the source; their conditions may differ.

Experiments:
[1] = tested on: ZRPELP1 cells; experiment: Initial screen, proliferation assay of PELP1-overexpressing breast cancer cells; type: cell-based, Human; conditions: peptide every 3 days, absorbance at 7 days, FIG. 1B
Experimental: FIGS. 1A-D. (FIG. 1A) Diagram for yeast two hybrid screen to identify PELP1 binding peptides. Four regions of PELP1 were tagged with the binding domain and a library of 10^6 random peptides (Clontech) were bound to an activation domain. The number of positive colonies per region of PELP1 are shown in the graph. (FIG. 1B) A proliferation assay was performed with […]1 cells plated in a 96 well plate, treated with peptide every 3 days and absorbance was measured at 7 days. (FIG. 1C) ZR75 were plated in a 6-well plate on coverslips in 8% RPMI and treated with 10 uM FITC labeled peptide for 30, 60, or 120 minutes. They were then fixed with pararformaldehyde, stained for PELP1 (red) and DAPI (blue), and imaged by confocal microscopy to monitor intracellular delivery. (FIG. 1D) ZR75 cells were starved of estrogen for 72 hours and treated with estradiol 10^-7 M for 12 hours. Nuclear lysate was incubated with biotin-tagged peptides bound to avidin beads for one hour. Beads were washed, run on SDS-PAGE gel and probed for PELP1 expression. Input of nuclear lysate is shown as control. Cell proliferation rates were measured by using MTT Cell Viability Assay in 96-well plates. Model cells were seeded in 96-well plates (1×10^3 cells/well) in DMEM or RPMI medium containing 10% serum. After an overnight incubation, cells were treated with varying concentrations of the peptides for 3-7 days and growth inhibition was determined by using traditional MTT assay (Sigma) following manufacturer's instructions.

[2] = biological target: T1, PELP1-G9a complex (Homo sapiens, UniProt Q8IZL8); experiment: In vitro peptide competition assay, G9a-GST on glutathione beads with purified PELP1; type: binding; conditions: peptides 2, 5, 10 μM, 2 hours, FIGS. 2C, 7B, 9
T1 construct: purified bacterial, full-length PELP1; host or cells: bacteria (PELP1)
T1 sequence (Q8IZL8 2-1130, one chain of several): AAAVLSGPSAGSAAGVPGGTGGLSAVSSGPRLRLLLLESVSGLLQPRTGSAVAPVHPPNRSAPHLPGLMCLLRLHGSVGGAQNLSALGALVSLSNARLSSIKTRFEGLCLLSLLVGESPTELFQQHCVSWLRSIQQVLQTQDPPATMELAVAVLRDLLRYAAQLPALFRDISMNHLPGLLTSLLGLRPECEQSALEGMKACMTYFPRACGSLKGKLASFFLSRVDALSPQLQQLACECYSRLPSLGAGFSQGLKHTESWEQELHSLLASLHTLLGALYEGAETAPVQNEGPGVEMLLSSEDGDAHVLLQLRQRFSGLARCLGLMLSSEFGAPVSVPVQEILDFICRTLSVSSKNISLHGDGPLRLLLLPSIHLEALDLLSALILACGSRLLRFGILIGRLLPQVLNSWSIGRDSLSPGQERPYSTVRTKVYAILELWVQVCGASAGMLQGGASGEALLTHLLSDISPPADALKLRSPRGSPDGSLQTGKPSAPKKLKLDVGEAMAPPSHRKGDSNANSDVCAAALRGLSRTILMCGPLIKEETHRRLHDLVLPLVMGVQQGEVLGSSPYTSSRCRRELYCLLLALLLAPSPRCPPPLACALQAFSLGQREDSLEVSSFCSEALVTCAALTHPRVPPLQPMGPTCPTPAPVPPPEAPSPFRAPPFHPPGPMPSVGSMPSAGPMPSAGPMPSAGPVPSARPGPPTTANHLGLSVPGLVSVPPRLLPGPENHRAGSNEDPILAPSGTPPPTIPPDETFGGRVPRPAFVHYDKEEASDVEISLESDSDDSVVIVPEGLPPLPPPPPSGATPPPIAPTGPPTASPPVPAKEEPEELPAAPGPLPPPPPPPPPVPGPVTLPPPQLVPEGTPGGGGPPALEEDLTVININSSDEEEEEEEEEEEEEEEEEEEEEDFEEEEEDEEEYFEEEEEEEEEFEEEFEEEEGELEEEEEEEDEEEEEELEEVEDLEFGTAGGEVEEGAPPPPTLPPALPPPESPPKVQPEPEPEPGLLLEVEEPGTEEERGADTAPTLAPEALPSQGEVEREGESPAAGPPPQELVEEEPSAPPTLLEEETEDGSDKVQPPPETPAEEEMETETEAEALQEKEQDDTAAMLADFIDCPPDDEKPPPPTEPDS
Experimental: FIGS. 2A-D. (FIG. 2A) Immunoprecipitation was performed on nuclear lysates obtained from ZRPELP1 cells grown in 5% DCC for 72 hours and treated with estradiol 10^−7 M for 12 hours. PELP1 was immunoprecipitated and western blotting was performed for PELP1 and G9a expression with IgG as the control. (FIG. 2B) Various fragments of PELP1 bound to glutathione beads were incubated with recombinant G9a for 2 hours. Beads were washed, run on an SDS-PAGE gel and immunoblotted for G9a expression. GST tag alone is shown as control. (FIG. 2C) Recombinant G9a-GST was bound to glutathione beads and incubated with purified PELP1 and peptides for 2 hours. Beads were washed and run on SDS-PAGE gel. (FIG. 2D) ZR75 cells were transfected with ERE-luciferase, PELP1 and/or G9a plasmids and treated with peptide for 24 hours and estradiol 10^−7 M for 12 hours. Relative luciferase activity is shown.
FIGS. 7A-E. (FIG. 7A) Bacterial purified PELP1 was incubated with biotin-tagged peptides bound to avidin beads for one hour. Beads were washed, run on SDS-PAGE gel and probed for PELP1 expression. Input of bacterial PELP1 is shown as control. (FIG. 7B) Recombinant G9a-GST was bound to glutathione beads and incubated with purified PELP1 and peptides for 2 hours. Beads were washed and run on SDS-PAGE gel. (+2 μM, ++5 μM, +++10 μM). (FIG. 7C) ZRGST and ZRPELP1GST cells were transfected in triplicate with TopFlash β-catenin reporter and treated with TAT or PIP1 (10 μM) for 24 hours. Relative luciferase activity is shown. (FIG. 7D) MCF7vec and MCF7PELP1 cells were treated with TAT or PIP1 (10 μM) and toxicity was measured by CytoTox-Flour Cytotoxicity Assay. (FIG. 7E) ZR75 and ZR75PELP1 cells were treated with TAT, PIP1 or PIP2 for 24 hours and immunoblotted for PELP1 and ERα expression with actin as the loading control.
FIG. 9. […]
Peptides were linked to EZ-Link NHS-Biotin (Thermo Scientific) per manutfacturer's protocol. […] Beads were washed 3× with IP buffer (20 mM HEPES pH 7.9, 20% glycerol, 0.1% triton-x, 100 mM KCl), eluted with SDS-dye, and PELP1 expression was determined by western blotting. […]

[3] = tested on: ERE-luciferase in ZRPELP1 cells; experiment: ERE-luciferase reporter gene assay in PELP1 overexpressing cells; type: cell-based, Human; conditions: peptide 24 hours, estradiol 12 hours, compared to control TAT, FIGS. 4B, 10
Experimental: (§1) FIGS. 4A-E. (FIG. 4A) ZR75vec, ZR75PELP1, MCF7vec and MCF7PELP1 cells were treated in triplicate with TAT, PIP1 or PIP1 deletions (Del1, Del2, Del3) at 10 uM every 3 days and proliferation was measured by MTT assay on day 7. (FIG. 4B) ZRPELP1 cells were transfected with ERE-luciferase and treated with TAT, PIP1, or PIP2 for 24 hours and with estradiol for 12 hours. Relative luciferase activity was measured in triplicate. (FIG. 4C) ZR75 cells were grown in 5% DCC media for 72 hours, treated with TAT or PIP1 every 3 days, and treated with estradiol 10^−7 M for 12 hours. Proliferation was measured in triplicate on day 7 by MTT assay at 595 nm. (FIG. 4D) MCF7-Letrozole resistant cells were grown in 5% DCC media for 72 hours, treated with TAT, PIP1 or PIP2 every 3 days, and letrozole or estradiol 10^−7 M for 12 hours. Proliferation was measured in triplicate on day 7 by MTT assay at 595 nm. (FIG. 4E) MCF7-Tamoxiefn resistant cells were grown in 5% DCC media for 72 hours, treated with TAT, PIP1 or PIP2 every 3 days, and tamoxifen or estradiol 10^−7 M for 12 hours. Proliferation was measured in triplicate on day 7 by MTT assay at 595 nm.
FIG. 10. ERE-luciferase assay. […]
Model cells were seeded in 6-well plates. […] Luciferase activity was measured by using the luciferase assay system (Promega, Madison, Wis.).

[4] = tested on: MCF7-TamR and MCF7-LTLT cells; experiment: Therapy resistance assays, MTT; type: cell-based, Human; conditions: MCF7-TamR and MCF7-LTLT, 10 μM, FIGS. 4D-E, 11
Experimental: as §1
FIG. 11. Cell proliferation assay: letrozole-resistant MCF-7-LTLT cells and Tamoxifen resistant MCF7-Tam cells were treated with TAT, PIP1, or PIP2 (10 μM)+/− letrozole or Tamoxifen.
Tamoxifen (Tam) therapy resistant MCF7-TamR and letrozole resistant MCF7-LTLT cells were cultured in tamoxifen or letrozole (10^-7M) containing media in the presence or absence of peptides and proliferation was measured by MTT assay (Sigma) following manufacturer's instructions.

[5] = tested on: MDA-MB-231 and MDA-MB-468; experiment: MTT proliferation assay, triple negative breast cancer cell lines; type: cell-based; conditions: preliminary studies
Experimental: FIGS. 8A-C. (FIG. 8A) ZR75PELP1KD cells were treated in triplicate with TAT or PIP1 (10, 20, or 50 μM) every 3 days and proliferation was measured by MTT assay on day 7. (FIG. 8B) MCF7PELP1KD cells were treated in triplicate with TAT or PIP1 (10, 20, or 50 μM) every 3 days and proliferation was measured by MTT assay on day 7. (FIG. 8C) MDAMB231 and MDAMB468 cells were treated in triplicate with TAT or PIP1 (10 μM) every 3 days and proliferation was measured by MTT assay on day 7. Cell proliferation rates were measured by using MTT Cell Viability Assay in 96-well plates. Model cells were seeded in 96-well plates (1×10^3 cells/well) in DMEM or RPMI medium containing 10% serum. After an overnight incubation, cells were treated with varying concentrations of the peptides for 3-7 days and growth inhibition was determined by using traditional MTT assay (Sigma) following manufacturer's instructions.

[6] = tested on: TNBC (MDA-MB-231 and MDA-MB-468) and ER-positive (ZR-75 and MCF-7) breast cancer cell lines; experiment: MTT proliferation assay of PIP3, TNBC and ER-positive breast cancer cell lines; type: cell-based; conditions: 10 μM and dose response, FIGS. 13A-C
Experimental: FIGS. 13A-C. […] (FIG. 13A) Breast cancer cells were treated with vehicle or 10 μM PIP3 and proliferation was measured by using the MTT assay. (FIGS. 13B-C) Dose response curves for PIP3. Cell proliferation rates were measured by using MTT Cell Viability Assay in 96-well plates. Model cells were seeded in 96-well plates (1×10^3 cells/well) in DMEM or RPMI medium containing 10% serum. After an overnight incubation, cells were treated with varying concentrations of the peptides for 3-7 days and growth inhibition was determined by using traditional MTT assay (Sigma) following manufacturer's instructions.

[7] = tested on: T98G, LN229 and U251 glioma cells and patient-derived primary GBM cells; experiment: MTT proliferation assay, glioma cell lines and primary GBM cells; type: cell-based; conditions: FIGS. 15A-D
Experimental: FIGS. 15A-D. PIPs inhibit proliferation of glioma cells. (FIGS. 15A-B) T98G, LN229 and U251 glioma cells were treated with vehicle or varying concentration of PIP1 or PIP3, and proliferation was measured by using the MTT assay. (FIGS. 15C-D) Patient-derived primary GBM cells were treated with PIP1 or PIP3 and proliferation was measured using the MTT assay. Cell proliferation rates were measured by using MTT Cell Viability Assay in 96-well plates. Model cells were seeded in 96-well plates (1×10^3 cells/well) in DMEM or RPMI medium containing 10% serum. After an overnight incubation, cells were treated with varying concentrations of the peptides for 3-7 days and growth inhibition was determined by using traditional MTT assay (Sigma) following manufacturer's instructions.

Sequence	PELP1-mediated breast cancer cell proliferation [1]	disruption of PELP1 interaction with G9a/EHMT2 [2]	ERE activation (ERE-luciferase) [3]	proliferation of therapy resistant cell lines [4]	activity on TNBC cells [5]	growth of TNBC and ER-positive breast cancer cell lines [6]	concentration of potent activity on glioma proliferation [7] [µM]	proliferation of glioma cell lines and primary GBM cells ([7]; varying concentration)
GRKKRRQRRRGGIMGRGLCMRGVVRGRGRN [PIP2]	significantly inhibit PELP1-mediated proliferation	disrupted by the addition of either of the two peptides in a dose-dependent manner	significantly decreased ERE activation	inhibited the proliferation; also recorded: efficiently reduce the growth of therapy resistant cells				
GRKKRRQRRRGGFKEWWRIDMVWLHRVRRNSY [PIP3]					has activity in triple negative cells	inhibited growth; also recorded: inhibits proliferation of breast cancer cells	5 to 10	significantly reduced their proliferation in a dose-dependent manner
GRKKRRQRRRGG [TAT, reference compound]	no significant effect	no effect						
